TGI and GI50 data for 20 compounds are collected here from PubChem BioAssay (NCI).

Several values for one entry are separate records, joined by “and”; a condition that tells them apart may be missing. Equal entries are not always repeated.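 Cells were grown in 96-well plates and exposed to each compound for 48 hours at five concentrations; endpoints were interpolated linearly between bracketing concentrations, or set to the highest concentration if not reached. GI50 = concentration required for 50% inhibition of growth. The concentration for full growth arrest is given as TGI.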

Among the test systems are DLD-1 colon; SNB-75 CNS; SR leukemia; HOP-18 NSCLC; SNB-78 CNS; SK-MEL-2 melanoma.
What all share (assay): NCI anticancer screen, dose series, 48 h

Take `O=C1NC2(CCCCC2)C2=C1CCCCC2`: the TGI with DLD-1 colon, in the test with SNB-75 CNS, with SR leukemia, in the test with HOP-18 NSCLC, in the test with SNB-78 CNS and with SK-MEL-2 melanoma was above 100 µM in each case.
Take `Cc1c2cc[n+](C)cc2c(C)c2c1[nH]c1ccc(Oc3ccccc3)cc12`: the TGI in the test with DLD-1 colon was above 100 µM; with SNB-75 CNS, 4.36 µM and 5.27 µM; in the test with SR leukemia, > 71.9 µM and 8.31 µM; with HOP-18 NSCLC, 21.8 µM and 32.5 µM; with SNB-78 CNS, 3.47 µM. Besides, the GI50 was 0.549 µM in the test on SNB-75 CNS; 4.39 µM and 1.87 µM with SR leukemia; 2.37 µM and 5.56 µM in the test on HOP-18 NSCLC; 0.809 µM and 0.266 µM with SNB-78 CNS.
With `NC1=NN(c2ccccc2)C(=O)C1/C(=N\NC(=O)c1cc2ccccc2cc1O)C(=O)Nc1ccc(Cl)cc1` (stereo not drawn), the TGI in the test with DLD-1 colon was above 100 µM; in the test with SNB-75 CNS, 54.8 µM; with HOP-18 NSCLC, above 100 µM; with SNB-78 CNS it was above 100 µM; in the test with SK-MEL-2 melanoma, above 100 µM.
With `CCCCc1c2c(nc3c1CC/C(=C\c1ccccc1)C3=O)CCCC2`, the TGI with DLD-1 colon amounted to 12.7 µM; in the test with SNB-75 CNS, 23 µM; in the test on SR leukemia, 11.5 µM; with SNB-78 CNS, 9.38 µM.
As to `O=[N+]([O-])c1cccc(C2=NOC3CCCC23)c1` (stereo not drawn), the TGI in the test on DLD-1 colon, with SNB-75 CNS, with HOP-18 NSCLC, with SNB-78 CNS and in the test with SK-MEL-2 melanoma was above 100 µM in each case.
Take `Cn1nc(-c2ccccc2)c(C(=O)/C=C/c2ccccc2)c(N2CCCC2)c1=O`: the TGI was found to be 34.2 µM in the test on DLD-1 colon and 47.1 µM with HOP-18 NSCLC.
For `O=[N+]([O-])C1(CO)COC(CCc2ccccc2)OC1` (stereo not drawn), the TGI with DLD-1 colon, in the test with SNB-75 CNS, in the test with SR leukemia, in the test on HOP-18 NSCLC and in the test on SK-MEL-2 melanoma was above 100 µM throughout.
Take `COC(=O)CCSC(=O)Nc1ccccc1Cl`: the TGI in the test on DLD-1 colon, with SNB-75 CNS, in the test on SR leukemia, with SNB-78 CNS and with SK-MEL-2 melanoma was above 100 µM throughout.
Consider `CC1CC2C(=O)N(c3ccccc3)C(=O)C2c2[nH]c3ccccc3c21` (stereo not drawn), for which the TGI with DLD-1 colon was above 100 µM; in the test with SNB-75 CNS it was 55.1 µM; with SR leukemia, above 100 µM; with SNB-78 CNS, above 100 µM.
For `NC1CC(n2ccc(=O)[nH]c2=O)OC1C(O)CO` (stereo not drawn), the TGI in the test with DLD-1 colon, in the test on SNB-75 CNS, with SR leukemia, in the test on HOP-18 NSCLC and with SK-MEL-2 melanoma was above 100 µM throughout.
Consider `O=C(Nc1ccccc1)Oc1ccccc1C1CCCCC1`, for which the TGI in the test with DLD-1 colon is above 100 µM; in the test with SNB-75 CNS, 39.9 µM; in the test on SR leukemia, 55.7 µM; in the test on HOP-18 NSCLC it was 68.5 µM; in the test on SNB-78 CNS it was 54.9 µM.
For the compound `CC(=O)OCC1OC(OC(C)=O)C(NC#N)C(OC(C)=O)C1OC(C)=O` (stereo not drawn), the TGI in the test on DLD-1 colon, in the test with SNB-75 CNS, with SR leukemia, with HOP-18 NSCLC and in the test with SK-MEL-2 melanoma was above 100 µM in each case.
For `NC(=O)NC(=O)C1CCC(=O)N1S(=O)(=O)c1ccc(Cl)cc1` (stereo not drawn), the TGI in the test with DLD-1 colon, with SNB-75 CNS, in the test on SR leukemia, in the test with HOP-18 NSCLC and with SK-MEL-2 melanoma was above 100 µM in each case.
For the compound `Cc1nc(-c2cccnc2)sc1C(=O)/C=C/c1ccc(Cl)cc1Cl`, the TGI in the test with DLD-1 colon, in the test with SNB-75 CNS, with HOP-18 NSCLC, in the test with SNB-78 CNS and in the test on SK-MEL-2 melanoma was above 100 µM in each case.
Regarding `COC(=O)N/N=C(\c1nc2ccc(Cl)cc2[nH]c1=O)C(O)c1ccc([N+](=O)[O-])cc1` (stereo not drawn), the TGI in the test on DLD-1 colon, in the test with SNB-75 CNS, with SR leukemia and in the test on SNB-78 CNS was above 100 µM each time.
For `CCCCCCCCCCCCCCCC(=O)NCC(OCC)OCC`, the TGI in the test with DLD-1 colon, in the test with SNB-75 CNS, in the test on HOP-18 NSCLC, in the test on SNB-78 CNS and in the test with SK-MEL-2 melanoma was above 100 µM in each case.
Turning to `CCCNc1ncnc2c1cnn2C`, the TGI in the test with SNB-75 CNS, in the test with SR leukemia, in the test on HOP-18 NSCLC, in the test with SNB-78 CNS and with SK-MEL-2 melanoma was above 100 µM in each case.
For `Nc1nc(N)c(-c2ccccc2)c(C(=O)Nc2nccs2)n1`, the TGI in the test on DLD-1 colon, in the test on HOP-18 NSCLC, in the test with SNB-78 CNS and in the test on SK-MEL-2 melanoma was above 100 µM each time.
`CCOC(=O)c1c(/C=N\Nc2ccccc2)nc2ccccc2c1-c1ccccc1`: the TGI was above 100 µM in the test with SNB-75 CNS; 61.4 µM in the test with SR leukemia; above 100 µM in the test on HOP-18 NSCLC; above 100 µM in the test with SNB-78 CNS; above 100 µM in the test with SK-MEL-2 melanoma.
In the case of `Nc1ccc2ncc(Nc3ccc(Cl)c(Cl)c3)nc2c1`, the TGI in the test on DLD-1 colon is above 100 µM; with SNB-75 CNS, 59.4 µM; with SR leukemia, above 100 µM; in the test with SNB-78 CNS, 74.1 µM; with SK-MEL-2 melanoma, above 100 µM.
